Several values for one entry are separate records, joined by “and”; a condition that tells them apart may be missing. Equal values may be shown once.
Experiments:
Format in all cases: cell-based, mouse
LPS-activated BV-2 cells [1] = assay: TNF-α ELISA of supernatant of LPS-activated BV-2 cells
Description: (§1) BV-2 cells were cultured in DMEM/F-12 media supplemented with 10% (v/v) FBS and 1% (v/v) penicillin/streptomycin, and kept at 37 °C in a humidified incubator ([…], 5% CO2) for all studies. Cells with 80% confluency were used for experiments. At 24 h post-seeding, BV-2 cells were treated with either of the MFP compounds (at concentrations detailed below) or vehicle (0.1% (v/v) DMSO) and 1 µg/mL LPS for a period of 24 h. In some experiments (detailed in Results), BV-2 cells were exposed to MFP compounds for 2 h before a 24 h exposure to LPS and MFP compounds, and in some studies, in the presence of FABP4 siRNA using a 24 h treatment that we have previously employed (Low et al. [2021]). […]
ELISA was performed as per manufacturer’s protocol to measure the concentration of TNF-α in the supernatant in which BV-2 cells were treated. […] 100 µL of Stop solution was added into each well before the plate was immediately read on a Perkin-Elmer Enspire fluorescence plate reader at 450 nm […] and 570 nm (absorbance). Absorbance values at 570 nm were subtracted from 450 nm to account for background. TNF-α concentration was normalised to total protein count (mg), as quantified by a BCA assay, and reported as pg/mg protein.

LPS-activated BV-2 cells [2] = assay: RT-qPCR for TNF-α mRNA expression in LPS-activated BV-2 cells; settings: 10 µM, 1 µg/mL LPS 24 h
Description: as §1
RT-qPCR was performed to determine the amount of TNF-α mRNA following the required cell treatments, as previously described (Low et al. [2020]). […] The concentration and purity of the isolated RNA was assessed using a Thermo Fisher Nanodrop 1000 spectrophotometer (Rockford, IL). […] The threshold cycles (Ct) were automatically calculated using the CFX manager software. […]

LPS-activated BV-2 cells [3] = assay: Intracellular ROS (DCF-DA) in LPS-activated BV-2 cells
Description: BV-2 cells were cultured in DMEM/F-12 media supplemented with 10% (v/v) FBS and 1% (v/v) penicillin/streptomycin, and kept at 37 °C in a humidified incubator ([…], 5% CO2) for all studies. Cells with 80% confluency were used for experiments. […] In some experiments (detailed in Results), BV-2 cells were exposed to MFP compounds for 2 h before a 24 h exposure to LPS and MFP compounds, and in some studies, in the presence of FABP4 siRNA using a 24 h treatment that we have previously employed (Low et al. [2021]). In brief, BV-2 cells were washed once 4 h post-seeding with blank DMEM/F-12 media. siRNA complexes (containing FABP4 siRNA, target sequence 5’-[…]-3’ or AllStar Negative Control siRNA, target sequence proprietary) were added dropwise onto the cells. siRNA complexes were prepared by mixing siRNA and HiPerfect transfection reagent together in FBS-free DMEM/F12 media and incubating for 15 min to allow the siRNA complexes to form. The cells were incubated with the siRNA complex for 5 min, after which, DMEM/F12 media containing FBS was added into each well to dilute the siRNA complexes to 5 nM.
Intracellular ROS in BV-2 cells, following treatment with MFP compounds and LPS, was detected using the widely-used membrane permeable probe, DCF-DA. Post treatment, BV-2 cells were rinsed once with warm HBSS prior to being incubated with 40 µM of DCF-DA for 30 min at 37°C, 5% CO2. The wells were then rinsed again with HBSS before being read on a Perkin-Elmer Enspire plate reader (λex: 488 nm, λem: 535 nm) as we have reported previously (Kagawa et al. [2023]).

BV-2 cells = assay: MTT assay of BV-2 cell viability; settings: 24 h
Description: BV-2 cells were cultured in DMEM/F-12 media supplemented with 10% (v/v) FBS and 1% (v/v) penicillin/streptomycin, and kept at 37 °C in a humidified incubator ([…], 5% CO2) for all studies. Cells with 80% confluency were used for experiments. At 24 h post-seeding, BV-2 cells were treated with either of the MFP compounds (at concentrations detailed below) or vehicle (0.1% (v/v) DMSO) and 1 µg/mL LPS for a period of 24 h. In some experiments (detailed in Results), BV-2 cells were exposed to MFP compounds for 2 h before a 24 h exposure to LPS and MFP compounds, and in some studies, in the presence of FABP4 siRNA using a 24 h treatment that we have previously employed (Low et al. [2021]). In brief, BV-2 cells were washed once 4 h post-seeding with blank DMEM/F-12 media. siRNA complexes (containing FABP4 siRNA, target sequence 5’-[…]-3’ or AllStar Negative Control siRNA, target sequence proprietary) were added dropwise onto the cells. siRNA complexes were prepared by mixing siRNA and HiPerfect transfection reagent together in FBS-free DMEM/F12 media and incubating for 15 min to allow the siRNA complexes to form. The cells were incubated with the siRNA complex for 5 min, after which, DMEM/F12 media containing FBS was added into each well to dilute the siRNA complexes to 5 nM.
To determine the most appropriate and tolerable concentration of MFP compounds in BV-2 cells, an MTT assay was performed. Following treatment with increasing concentrations of MFP compounds for 24 h, BV-2 cells were rinsed once with PBS prior to being incubated with 0.45 mg/mL MTT reagent for 4 h in a 37 °C, 5% CO2 incubator. After that, the MTT reagent was removed and 150 µL of DMSO was added into all wells for 30 min. The plate was then immediately read on a Perkin-Elmer Enspire fluorescence plate reader (Boston, MA) at 540 nm. Background subtraction was performed before the percentage cell viability was calculated and expressed as a ratio of mean absorbance of MFP-treated cells over mean absorbance of vehicle-treated cells.

[4] = BV-2 cells pre-treated with LPS for 4 h, then 10 µM compound

O=C(O)c1cccc(NS(=O)(=O)c2ccc(Cl)c(Cl)c2)c1 [MFP-0012328]
reduction in extracellular concentration of TNF-α relative to LPS-only (LPS-activated BV-2 cells [1]; 10 µM, 1 µg/mL LPS 24 h): 25% and 24.8% | reduction of TNF-α release vs LPS-alone (LPS-activated BV-2 cells [1]; [4]): 15.7% | reduction of TNF-α mRNA levels relative to LPS alone (LPS-activated BV-2 cells [2]): 17% | reduction of ROS production vs LPS-treated BV-2 cells (LPS-activated BV-2 cells [3]; 5 nM FABP4 siRNA, 10 µM MFP-0012328, or both, with 1 µg/mL LPS 24 h, range over the three treatments): 36.6–61.2% | further reduction of ROS levels in FABP4 siRNA treated cells (LPS-activated BV-2 cells [3]; 10 µM plus 5 nM FABP4 siRNA, 1 µg/mL LPS 24 h): not able to reduce ROS levels any further | reduction of ROS production vs LPS-alone (LPS-activated BV-2 cells [3]; [4]): 27.8% | fold reduction in cell viability (BV-2 cells; 75 µM and 100 µM of MFP-0012328, 100 µM of the other MFP compounds, range over the compounds): 0.17–0.27 fold | BV-2 cell viability relative to vehicle control (BV-2 cells; 2–50 µM, MTT): no significant differences

Source: publication PMC12000251, “Evaluation of the Anti-Inflammatory Effects of Novel Fatty Acid-Binding Protein 4 Inhibitors in Microglia” (Journal of Neuroimmune Pharmacology, 2025)
